Drawing on ChEMBL document CHEMBL1125315, “Synthesis and evaluation of 2-pyridinone derivatives as HIV-1-specific reverse transcriptase inhibitors. 2. Analogues of 3-aminopyridin-2(1H)-one” (J Med Chem, 1992), this text covers IC95 and IC50 for 68 compounds.

Molecules are shown by their SMILES.

The first assay has as its system MT4. Description: Compound was evaluated for antiviral activity in MT-4 cells. Cell culture inhibitor concentration (CIC95) is defined as concentration which inhibited >95% the spread of HIV-1 IIIb infection in susceptible cell culture. The note with it: Homo sapiens, read-out: CIC95. In kind it is functional.
`CCc1cc(NCc2cc3c(Cl)ccc(Cl)c3o2)c(O)nc1C`: the IC95 came out at 50 nM.

Turning to `CSc1cc(NCc2nc3c(Cl)ccc(Cl)c3o2)c(O)nc1C`, the IC95 is 100 nM.

On to `CCc1cc(NCc2nc3ccccc3o2)c(O)nc1C`, for which the IC95 amounted to 200 nM.

For another assay, the system named is H9. As to the kind of experiment: Compound was evaluated for antiviral activity against H9 cells. Cell culture inhibitor concentration (CIC95) is defined as those which inhibited by >95% the spread of HIV-1 IIIb infection in susceptible cell culture. In kind it is functional. The note with it: Homo sapiens, read-out: CIC95.
As to `Cc1cn([C@H]2C[C@H](N=[N+]=[N-])[C@@H](CO)O2)c(=O)[nH]c1=O` [ZIDOVUDINE], the IC95 turned out to be 20000 nM.

Another assay addresses Human immunodeficiency virus type 1 reverse transcriptase (Human immunodeficiency virus 1, UniProt Q72547). Description: In vitro HIV-1 RT inhibitory activity using rC.dG as template-primer.
Settings: not given
What is called IC50 is the concentration needed to halve the response being measured. Read a low IC50 as greater potency in that assay. Compound `CCc1cc(NCc2coc3ccccc3c2=O)c(=O)[nH]c1C` registered a concentration for half-maximal inhibition (IC50) of 1100 nM.

For `CCc1cc(NCc2cc3ccccc3s2)c(O)nc1C`, half-maximal inhibition (IC50) required 500 nM.

Turning to `CCc1cc(NCc2nc3c(F)ccc(Cl)c3o2)c(=O)[nH]c1C`, 105 nM corresponded to half-maximal inhibition (IC50).

In turn, `CCc1cc(NCc2ccc3ccccc3c2)c(=O)n(C)c1C` gave an IC50 of 11000 nM.

`CCc1cc(NCc2cc3cccc(Cl)c3o2)c(O)nc1C` came in with a concentration for half-maximal inhibition (IC50) of 335 nM.

Compound `CCc1cc(NCc2cc3c(Cl)ccc(Cl)c3o2)c(O)nc1C` showed a 50% inhibitory concentration (IC50) of 57 nM.

`CCc1cc(NCc2ccc3ccccc3n2)c(=O)[nH]c1C` yielded an IC50 of 530 nM.

The compound `O=c1[nH]c2ccccc2cc1NCc1ccc2ccccc2c1` gave a half-maximal inhibitory concentration (IC50) above 300000 nM.

In turn, `CCc1cc(NCc2cc3cnccc3o2)c(=O)[nH]c1C` yielded a half-maximal inhibitory concentration (IC50) of 32300 nM.

Consider `CCc1cc(NCc2nc3c(O)cccc3o2)c(=O)[nH]c1C`, for which the IC50 worked out at 440 nM.

The compound `CCc1cc(NCc2nc3c([N+](=O)[O-])cccc3o2)c(O)nc1C` displayed a concentration for half-maximal inhibition (IC50) of 24500 nM.

Consider `CCOC(=O)c1cc(NCc2nc3ccccc3o2)c(=O)[nH]c1C`, for which inhibition was half-maximal at 1750 nM (IC50).

`CCc1cc(NCc2cc3ccncc3o2)c(O)nc1C` returned a half-inhibitory concentration (IC50) of 105000 nM.

`CC(=O)c1cc(NCc2nc3c(Cl)ccc(Cl)c3o2)c(O)nc1C` came in with an IC50 of 300 nM.

Compound `CCc1cc(NCc2nc3ccc(F)cc3o2)c(=O)[nH]c1C` registered an IC50 of 1250 nM.

The compound `CCc1cc(NCc2nc3c(ccc4ccccc43)o2)c(O)nc1C` showed a concentration for half-maximal inhibition (IC50) of 2700 nM.

`CCc1cc(N(C)Cc2nc3c(C)ccc(C)c3o2)c(=O)[nH]c1C` came in with an IC50 of 103 nM.

Compound `CCSc1cc(NCc2nc3ccccc3o2)c(=O)[nH]c1C` yielded a concentration for half-maximal inhibition (IC50) of 430 nM.

Compound `CCc1cc(NCc2nc3c(Cl)cccc3o2)c(O)nc1C` returned an IC50 of 150 nM.

`Cc1[nH]c(=O)c(NCc2nc3c(Cl)ccc(Cl)c3o2)cc1C(C)O` (configuration not stated) displayed a half-inhibitory concentration (IC50) of 1050 nM.

As for `CCc1cc(NCc2ccc3ccccc3c2)c(=S)[nH]c1C`, inhibition was half-maximal at 300 nM (IC50).

Compound `CSc1cc(NCc2nc3ccccc3o2)c(O)nc1C` had a half-inhibitory concentration (IC50) of 190 nM.

Turning to `CCc1cc(NCc2nc3cccc(CC)c3o2)c(O)nc1C`, the IC50 came out at 260 nM.

Regarding `CCc1cc(NCc2nc3c(F)cccc3o2)c(=O)[nH]c1C`, the 50% inhibitory concentration (IC50) is 110 nM.

For the compound `CCc1cc(NCc2nc3ncccc3o2)c(O)nc1C`, half-maximal inhibition (IC50) was put at 1900 nM.

In turn, `Cc1cc(C)c(NCc2nc3c(Cl)ccc(Cl)c3o2)c(=O)[nH]1` registered a half-inhibitory concentration (IC50) of 2850 nM.

`CCc1cc(NC(C)c2ccc3ccccc3c2)c(O)nc1C` (configuration not stated) had a half-inhibitory concentration (IC50) of 1130 nM.

Compound `CCc1cc(N(C)Cc2cc3c(Cl)ccc(Cl)c3o2)c(=O)[nH]c1C` had an IC50 of 1050 nM.

Take `CCc1cc(NCc2ncc(-c3ccccc3)o2)c(=O)[nH]c1C`: it took 2350 nM to reach half-maximal inhibition (IC50).

`CCc1cc(NCc2oc3ccccc3c2C)c(=O)[nH]c1C`: inhibition was half-maximal at 1950 nM (IC50).

As to `CCc1cc(N(C)Cc2nc3c(Cl)ccc(Cl)c3o2)c(=O)[nH]c1C`, the IC50 was found to be 58 nM.

As to `CCc1cc(NCc2nc3cccc(F)c3o2)c(=O)[nH]c1C`, half-maximal inhibition (IC50) was put at 92 nM.

Compound `CCc1cc(NCc2nc3c(Cl)ccc(Cl)c3o2)c(S)nc1C` came in with an IC50 of 42 nM.

`CCc1cc(NCc2nc3cc(F)ccc3o2)c(=O)[nH]c1C` returned a half-maximal inhibitory concentration (IC50) of 470 nM.

In turn, `CCc1cc(NCc2nc3ccc(C)cc3o2)c(=O)[nH]c1C` registered an IC50 of 1650 nM.

Regarding `CCc1cc(NCc2cnc3ccccc3c2)c(=O)[nH]c1C`, half-maximal inhibition (IC50) was put at 335 nM.

Turning to `Cc1[nH]c(=O)c(NCc2nc3ccccc3o2)cc1S(C)(=O)=O`, inhibition was half-maximal at 1150 nM (IC50).

`CCc1cc(NCc2ccoc2)c(O)nc1C` registered an IC50 of 145000 nM.

Consider `CCc1cc(NCc2cc3ccccc3[nH]2)c(=O)[nH]c1C`, for which the IC50 is 4400 nM.

Compound `CCc1cc(NCc2cccc3ccccc23)c(=O)[nH]c1C` had an IC50 of 2100 nM.

`CCc1cc(N(CC)Cc2nc3c(Cl)ccc(Cl)c3o2)c(O)nc1C` showed an IC50 of 654 nM.

`COc1cc(NCc2nc3c(Cl)ccc(Cl)c3o2)c(O)nc1C` yielded a half-maximal inhibitory concentration (IC50) of 115 nM.

Regarding `CCc1cc(NCc2nc3c(OC)cccc3o2)c(=O)[nH]c1C`, the half-maximal inhibitory concentration (IC50) came to 180 nM.

In turn, `CCc1cc(NCc2cc3ccccc3o2)c(O)nc1C` registered a 50% inhibitory concentration (IC50) of 330 nM.

In the case of `CCc1cc(NCc2ccc3ccccc3c2)c(=O)[nH]c1C`, it took 460 nM to reach half-maximal inhibition (IC50).

`Cc1nc(O)c(NCc2nc3ccccc3o2)cc1[S+](C)[O-]` (configuration not stated): the IC50 came to 31500 nM.

As for `CCc1cc(NCc2ccco2)c(=O)[nH]c1C`, 29000 nM corresponded to half-maximal inhibition (IC50).

Take `CSc1cc(NCc2nc3c(Cl)ccc(Cl)c3o2)c(O)nc1C`: the IC50 was determined as 43 nM.

Compound `CCc1cc(NCc2nc3cc(C)ccc3o2)c(O)nc1C` gave an IC50 of 1250 nM.

Consider `CCc1cc(NCc2nc3ccccc3c(=O)[nH]2)c(=O)[nH]c1C`, for which the concentration for half-maximal inhibition (IC50) was found to be 2500 nM.

Consider `CCc1cc(NC(C)c2cc3ccccc3o2)c(=O)[nH]c1C` (configuration not stated), for which 970 nM corresponded to half-maximal inhibition (IC50).

In turn, `CCc1cc(NCc2nc3c(o2)CCCC3)c(=O)[nH]c1C` gave an IC50 of 280 nM.

Consider `CCc1cc(NCc2nc3cccc(Cl)c3o2)c(=O)[nH]c1C`, for which the half-inhibitory concentration (IC50) came out at 65 nM.

`CCc1cc(NCc2ccccn2)c(O)nc1C`: the 50% inhibitory concentration (IC50) is 15000 nM.

The compound `C=Cc1cc(NCc2nc3c(Cl)ccc(Cl)c3o2)c(=O)[nH]c1C` registered an IC50 of 23 nM.

`CCc1cc(NCc2nc3c(N)cccc3o2)c(O)nc1C` gave a half-inhibitory concentration (IC50) of 67000 nM.

As to `CCc1cc(NCc2c[nH]c3ccccc23)c(O)nc1C`, the IC50 stood at 22500 nM.

With `CCc1cc(NCc2nc3cc4ccccc4cc3o2)c(=O)[nH]c1C`, the IC50 was found to be 10000 nM.

With `CCc1c(C)[nH]c(=O)c(NCc2nc3ccccc3o2)c1C`, the concentration for half-maximal inhibition (IC50) turned out to be 600 nM.

For `CCc1cc(NCc2nc3c(F)ccc(F)c3o2)c(=O)[nH]c1C`, the IC50 turned out to be 70 nM.

`CCc1cc(NCc2cccnc2)c(=O)[nH]c1C`: half-maximal inhibition (IC50) required 300000 nM.

For `CCc1cc(NCc2ccccc2)c(=O)[nH]c1C`, the half-inhibitory concentration (IC50) stood at 5330 nM.

The compound `CCc1cc(NCc2nc3ccccc3[nH]2)c(O)nc1C` came in with an IC50 of 7580 nM.

`CCc1cc(NCc2nc3c(C)cccc3o2)c(O)nc1C` came in with a half-maximal inhibitory concentration (IC50) of 120 nM.

In a further assay the test system is H9. As to the kind of experiment: Compound was evaluated for antiviral activity in H9 cells. Cell culture inhibitor concentration (CIC95) is defined as uM. The assay is classed as functional. The note with it: Homo sapiens, read-out: CIC95.
As for `CCc1cc(NCc2nc3c(C)ccc(C)c3o2)c(O)nc1C`, the IC95 turned out to be 100 nM.

The next assay relates to MT4. As to the kind of experiment: Compound was evaluated for antiviral activity in MT-4 cells. Cell culture inhibitor concentration (CIC95) is defined as concentration which inhibited >95% the spread of HIV-1 IIIb infection in susceptible cell culture; value ranges from 0.025-0.050 uM. The note with it: Homo sapiens, read-out: CIC95. The assay is classed as functional.
Turning to `CCc1cc(NCc2nc3c(C)ccc(C)c3o2)c(O)nc1C`, the IC95 came to 25 nM.

`CCc1cc(NCc2nc3c(Cl)ccc(Cl)c3o2)c(O)nc1C` [L-697661]: the IC95 amounted to 25 nM.

For another assay, the system named is MT4. Description: Compound was evaluated for antiviral activity against MT-4 cells. Cell culture inhibitor concentration (CIC95) is defined as those which inhibited by >95% the spread of HIV-1 IIIb infection in susceptible cell culture; value ranges from 0.012-0.025 uM. The assay is classed as functional. The note with it: Homo sapiens, read-out: CIC95.
Regarding `Cc1cn([C@H]2C[C@H](N=[N+]=[N-])[C@@H](CO)O2)c(=O)[nH]c1=O` [ZIDOVUDINE], the IC95 turned out to be 12 nM.
